# Test results published in patent publication US12559725B2, “Formulation comprising extracellular vesicles, method for producing the same, and uses thereof” (MacKay Memorial Hospital, priority 2018, dated 2026).
# How the values were obtained:
# U937 myeloid cells = test: Reactive oxygen species in PMA-stimulated U937 myeloid cells (DCFH flow cytometry); format: cell-based; settings: EVs 0.15 mg/ml, curcumin 0.8 mM, 30 minutes, vs medium only
# Method: The U937 myeloid cells were seeded in 24-well plate at a density of 8×10^4 cells/well (in 0.4 ml) followed by the stimulation of 100 nM PMA (phorbol myristate acetate) at 37° C., 5% CO2 incubator for 48 hours. The cells were washed with PBS twice before adding medium with and without ucMSC-naive-EVs (0.15 mg/ml), curcumin (Cur, 0.8 mM) or EV-curcumin (Cur/EVs, 0.8 mM) for 30 minutes. The reactions were incubated with DCFH ([…]) at 1 uM for 20 minutes before flow cytometric analysis of H2O2-mediated fluorescence at 480 nm emission.
# [1] = test system: mouse model of anti-aging; test: D-galactose aging mouse model, Morris water maze; format: in vivo, BALB/c mice; settings: D-galactose 6 weeks, then intraperitoneal three times a week for 3 weeks
# Method: In a mouse model of anti-aging, BALB/c mice were subcutaneously treated with 100 mg/kg D-galactose every day for 6 consecutive weeks. Then, the mice were intraperitoneally administered with 0.1 ml PBS (serving as the negative control group), 0.1 ml curcumin (1 μM), 0.1 ml ucMSC-naive-EVs, 0.1 ml EV-curcumin (about 120 ug protein of EVs, 2.2×10^11 vesicles), or 5 mg/kg β-lapachone three times a week for 3 weeks after 6 weeks of aging induction and the pre-test of cognition assessment. The anti-aging effect of ucMSC-naive-EVs and EV-curcumin was then assessed by the cognition ability in Morris water maze model.
# [2] = test system: cisplatin-induced hearing loss; test: Cisplatin-induced hearing loss mouse model (ABR, organ of Corti explants); format: in vivo, C57BL/6 mice; settings: intraperitoneal 0.1 ml day 1 to day 5; ABR threshold at 12 kHz, 10 days post-treatment
# Method: In a mouse model of hearing loss, the inner cell damage was induced by administering to C57BL/6 mice 4 mg/kg cisplatin daily for 5 consecutive days, in which the mice were intraperitoneally treated with 0.1 ml PBS (serving as the negative control group), 0.1 ml ucMSC-naive-EVs or 0.1 ml EV-curcumin (about 120 ug protein of EVs, 2.2×10^11 to 2.8×10^11 vesicles) from day 1 to day 5. The protecting effect of ucMSC-naive-EVs and EV-curcumin was assessed by analyzing the cell number and function of the inner ear cells. To assess the protecting effect of the present EV formulation on hearing loss and inner ear cell death, auditory brain response (ABR) threshold at 12 kHz and immunofluorescence images of organ of Corti explants were measured 10 days post-treatment. To obtain the ucMSC-EVs preparations with and without curcumin incorporation enough for the animal study requiring a larger amount of EVs for daily intraperitoneal injection, the ucMSC-EVs in paired formulations with and without curcumin incorporation were prepared and stored at −80° C. for at least 3 months. To make sure homogeneous application of ucMSC-EV to each mouse, different batches of EVs were thawed and mixed for the experiment right before the animal study. One-way ANOVA with Duncan post hoc test was performed when compared with the control or cisplatin group.
smiles,measurement,setting,value
COc1cc(/C=C/C(=O)CC(=O)/C=C/c2ccc(O)c(OC)c2)ccc1O [curcumin],production of reactive oxygen species (H2O2-mediated fluorescence),U937 myeloid cells,significantly decreased the production of reactive oxygen species
same,"time to reach the safety island (escape latency), Morris water maze",[1],obviously reduced the time to reach the safety island
same,cisplatin-induced hearing loss (ABR),[2],not curcumin alone
CC1(C)CCC2=C(O1)c1ccccc1C(=O)C2=O [β-lapachone],"time to reach the safety island (escape latency), Morris water maze",[1],obviously reduced the time to reach the safety island
